Test results from patent US20060035977A1, “Uses of acylated aminopropanediols and sulphur and nitrogen analogues of same f” (Gentif, priority 2003, published 2006).

Columns and labels:
LDL = assay: Protection against LDL oxidation induced by copper (conjugated diene formation); type: biochemical; details: for antioxidant activity on LDL oxidation induced by copper: conjugated diene formation, 30° C., 8 hours; for shift in the lag phase latency (delay): LDL oxidation induced by copper, conjugated dienes at 234 nm, relative to control (FIG. 4A)
Method: LDL were prepared as described in Lebeau et al. (Lebeau, Furman et al. 2000). The solutions of the test compounds were prepared at 10^−2 M in ethanol and diluted in PBS so that the final concentration ranged from 0.1 to 100 μM with a total ethanol concentration of 1% (VN).
Before oxidation, EDTA was removed from the LDL preparation by dialysis. The oxidation reaction was then carried out at 30° C. by adding 100 μl of 16.6 μM CuSO4 to 800 μl of LDL (125 μg protein/ml) and 100 μl of a test compound solution. The formation of dienes, the species to be followed, was measured by the optical density at 234 nm in the samples treated with the compounds in the presence or absence of copper. Optical density at 234 nm was measured every 10 minutes for 8 hours on a thermostated spectrophotometer (Kontron Uvikon 930). The analyses were carried out in triplicate. A compound was considered to have antioxidant activity when it shifted the lag phase latency relative to the control sample. […] FIG. 4 presents an example of the results obtained with the inventive compounds.

Gal4/PPARα = biological target: T1, Gal4/PPARα (Homo sapiens, UniProt Q07869); assay: Gal4/PPARα transactivation system in HepG2 cells (luciferase reporter); details: 24 h, HepG2 cells transfected with Gal4/PPARα plasmids, compound in PC liposomes
T1 sequence (Q07869 239-466 limits assumed): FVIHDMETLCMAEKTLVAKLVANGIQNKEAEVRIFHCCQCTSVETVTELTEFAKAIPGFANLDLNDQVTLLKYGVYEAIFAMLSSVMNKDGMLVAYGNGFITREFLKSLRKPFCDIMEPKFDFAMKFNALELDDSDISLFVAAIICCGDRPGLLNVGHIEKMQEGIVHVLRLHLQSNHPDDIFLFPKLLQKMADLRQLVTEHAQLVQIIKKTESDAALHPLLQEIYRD
Method: PPAR activation was tested in vitro in RK13 fibroblast cell lines or in a hematocyte line HepG2 by measuring the transcriptional activity of chimeras composed of the DNA binding domain of the yeast gal4 transcription factor and the ligand binding domain of the different PPARs. The example below is given for HepG2 cells.
HepG2 cells were from ECACC (Porton Down, UK) and were grown in DMEM medium supplemented with 10% (V/V) fetal calf serum, 100 U/ml penicillin (Gibco, Paisley, UK) and 2 mM L-glutamine (Gibco, Paisley, UK). The culture medium was changed every two days. Cells were kept at 37° C. in a humidified 95% air/5% CO2 atmosphere.
HepG2 cells were seeded in 24-well culture dishes at 5×10^4 cells/well and transfected for 2 hours with the reporter plasmid pG5TkpGL3 (50 ng/well), the expression vectors pGal4-f, pGal4-mPPARα, pGal4-hPPARα, pGal4-hPPARγ, or pGal4-hPPARβ (100 ng/well) and the transfection efficiency control vector pRL-CMV (1 ng/well) according to the previously described protocol (Raspe, Madsen et al. 1999), then incubated for 36 hours with the test compounds. At the end of the experiment, the cells were lysed (Gibco, Paisley, UK) and luciferase activity was determined with a Dual-Luciferase™ Reporter Assay System kit (Promega, Madison, Wisc., USA) according to the supplier's instructions. The protein content of the cell extracts was then measured with the Bio-Rad Protein Assay kit (Bio-Rad, Munich, Germany) as directed by the supplier.
The results are expressed as the induction factor (luminescent signal of treated cells divided by luminescent signal of untreated cells) after the different treatments.

[1] = Effects on plasma lipids in rats in vivo; details: Sprague-Dawley rats, 300 mg/kg/day, intragastric gavage, once a day for 15 days
Method: Sprague-Dawley rats weighing 200 to 230 g (Charles River, L'Arbresle, France) were housed in a 12-hour light/dark cycle at a constant temperature of 20±3° C. After a 1-week acclimatization period, rats were weighed and distributed into groups of 8 animals selected such that the distribution of plasma cholesterol and triglyceride levels was uniform. The test compounds were suspended in a vehicle (0.5% carboxymethylcellulose (CMC) and 0.1% Tween) and administered by intragastric gavage at the indicated doses, once a day for 15 days. Animals had access to food and water ad libitum. At the end of the experiments, animals were weighed and sacrificed under anesthesia after a 5-hour fast. Blood was collected on EDTA. Plasma was isolated by centrifugation at 3000 rpm for 20 minutes. […]
Lipid concentrations in plasma (total cholesterol and triglycerides) were determined by a […] assay (Bio-Mérieux, Marcy I'Etoile, France) according to the supplier's instructions. Plasma concentrations of apolipoproteins AII, AI and CIII were determined as previously described (Raspe, Madsen et al. 1999) and (Asset, Staels et al. 1999).
To separate the lipoproteins according to size, 300 μl of plasma were loaded on a Sepharose 6HR 10/30 column (Pharmacia, Uppsala, Sweden) and eluted at a constant flow rate (0.2 ml/minute) in PBS (pH 7.2). Optical density of the eluent was recorded at 280 nm. […]

1,2-(ditetradecylthioacetyloxy)-3-palmitoylaminopropane [Ex 6]
antioxidant activity on LDL oxidation induced by copper (LDL): exhibit intrinsic antioxidant properties
induction factor (luminescent signal of treated cells divided by luminescent signal of untreated cells) (Gal4/PPARα; 5 μM): 1.1 fold
induction factor (luminescent signal of treated cells divided by luminescent signal of untreated cells) (Gal4/PPARα; 15 μM): 2.2 fold
induction factor (luminescent signal of treated cells divided by luminescent signal of untreated cells) (Gal4/PPARα; 50 μM): 9.6 fold
induction factor (luminescent signal of treated cells divided by luminescent signal of untreated cells) (Gal4/PPARα; 100 μM): 14.5 fold

CCCCCCCCCCCCCCSCC(=O)NCC(O)CO (stereo not drawn) [Ex 2, 3-(tetradecylthioacetylamino)propane-1,2-diol]
shift in the lag phase latency (delay) (LDL): 13.4%
antioxidant activity on LDL oxidation induced by copper (LDL): exhibit intrinsic antioxidant properties
induction factor (luminescent signal of treated cells divided by luminescent signal of untreated cells) (Gal4/PPARα; 5 μM): 1.5 fold
induction factor (luminescent signal of treated cells divided by luminescent signal of untreated cells) (Gal4/PPARα; 15 μM): 7.7 fold
induction factor (luminescent signal of treated cells divided by luminescent signal of untreated cells) (Gal4/PPARα; 50 μM): 19.8 fold
induction factor (luminescent signal of treated cells divided by luminescent signal of untreated cells) (Gal4/PPARα; 100 μM): 19.2 fold

CCCCCCCCCCCCCCSCC(=O)NCC(CNC(=O)CSCCCCCCCCCCCCCC)OC(=O)CSCCCCCCCCCCCCCC [Ex 11, 1,3-ditetradecylthioacetylamino-2-(tetradecylthioacetyloxy)propane]
total plasma cholesterol ([1]; D0, D7, D14 (FIG. 3A)): lowered
plasma triglycerides ([1]; D0, D7, D14 (FIG. 3B)): lowered
antioxidant activity on LDL oxidation induced by copper (LDL): exhibit intrinsic antioxidant properties

1,2-(dipalmitoyloxy)-3-tetradecylthioacetylaminopropane [Ex 4]
shift in the lag phase latency (delay) (LDL): 34.3%
antioxidant activity on LDL oxidation induced by copper (LDL): exhibit intrinsic antioxidant properties

1,2-(ditetradecylthioacetyloxy)-3-tetradecylthioacetylaminopropane [Ex 5]
antioxidant activity on LDL oxidation induced by copper (LDL): exhibit intrinsic antioxidant properties
induction factor (luminescent signal of treated cells divided by luminescent signal of untreated cells) (Gal4/PPARα; 5 μM): 1.2 fold
induction factor (luminescent signal of treated cells divided by luminescent signal of untreated cells) (Gal4/PPARα; 15 μM): 2.5 fold
induction factor (luminescent signal of treated cells divided by luminescent signal of untreated cells) (Gal4/PPARα; 50 μM): 7 fold
induction factor (luminescent signal of treated cells divided by luminescent signal of untreated cells) (Gal4/PPARα; 100 μM): 10.5 fold

CCCCCCCCCCCCCCCC(=S)OC(CN)CN.Cl.Cl
melting point: 224 °C (dec.)

CCCCCCCCCCCCCCCC(=O)NCC(O)CO (stereo not drawn) [Ex 3, 3-(palmitoylamino)propane-1,2-diol]
melting point: 104 to 108 °C

CCCCCCCCCCCCCCCC(=S)SC(CN)CN.Cl.Cl
melting point: 181 °C (dec.)
